The species entered for this test is Canis lupus familiaris. In words: Induction of Ca2+ uptake in sarcoplasmic reticular-vesicle isolated from dog cardiac ventricle at 10 to 100 uM by fluorimetric method. In kind it is functional, tissue-based.

The source made the active and inactive calls. The rule behind the calls is not given here.

As to `CC/C=C/C(CC)C/C(C)=C/[C@]1(CC)C[C@H](CC)[C@H](CC(=O)OC)OO1` (some centres undefined), the outcome was Active.

With `CC/C=C/C(CC)C[C@@]1(C)C[C@@H](CC)[C@H](CC(=O)OC)OO1` (some centres undefined), the outcome was Active.

As to `CC/C=C/C(CC)CCC[C@]1(CC)C[C@H](CC)[C@H](CC(=O)OC)OO1` (some centres undefined), the outcome was Active.

`CC/C=C/C(CC)CCC[C@@]1(CC)C[C@H](CC)[C@H](CC(=O)OC)OO1` (some centres undefined): the outcome was Active.

The values above are taken from ChEMBL document CHEMBL1158202, “Plakortides, novel cyclic peroxides from the sponge Plakortis halichondrioides: activators of cardiac SR-CA(2+)-pumping ATPase” (J Nat Prod, 1996).
